# From US10017403B2, “Use of peracetic acid/hydrogen peroxide and peroxide-reducing enzymes for treatment of drilling fluids, frac fluids, flowback water and disposal water” (ECOLAB USA INC., priority 2012, dated 2018)
# Experiments:
# [1] = Catalase amount needed in POAA treated water, iodometric titration (Example 15); assay type: biochemical
# Method: Field of use applications were analyzed to determine the amount of a peroxide-reducing enzyme necessary to obtain desired concentrations of both peracid and hydrogen peroxide in a treated water source. EnviroSan (POAA) peracid composition was added to water to reach the targeted POAA concentrations set forth in Table 18, and the concentration of both POAA and H2O2 were confirmed by iodometric titration. Then catalase (ES2000) was added to the solution, and the sample was stored under ambient conditions. The concentration of POAA and H2O2 were monitored by the iodometric conditions.
# fracking water mixtures [2] = test: Micro efficacy in fracking water mixtures, baseline without catalase (Example 3); assay type: cell-based
# Method: The impact of water pretreatment with 500 ppm of the EnviroSan product (75 ppm POAA) on micro efficacy in various fracking water mixtures were evaluated. The example represents a baseline data set of various water treatment options according to the invention. Table 2 and FIG. 3 show the average log reduction in various slick water treatments with varying ppm PAA (without any catalase treatment or pretreatment), representing a baseline data set.
# [3] = Titration of POAA consumption in water mixtures (Example 6); assay type: physicochemical
# [4] = system: Pseudomonas aeruginosa ATCC 15442; test: Micro efficacy at 30 ppm POAA with or without catalase, with or without water pretreatment (Example 7); assay type: cell-based; conditions: no holding tank pretreatment, 30 ppm PAA
# Method: All water mixtures were treated with an initial concentration of 30 ppm POAA EnviroSan, both with and without the addition of catalase. The data set evaluates whether there is a significant difference in micro activity generated between treatments of EnviroSan alone vs. EnviroSan pre-reduced with catalase.
# All ratios of fracking water mixtures tested (100/0, 90/10, 80/20 & 70/30) were freshly mixed solutions, as well as solutions mixed and pretreated with 500 ppm EnviroSan product more than 1 hour before the start of the micro evaluation, in order to observe if a pretreatment step is of value for micro performance compared to those mixtures not pretreated. The test system (P. aeruginosa and natural water) described in Example 5 was again utilized. Water mixtures as outlined in Table 9 were provided (showing the percentage of 100 mL of each water sample type).
# The testing methods of Example 5 were utilized for the chemically treated water samples, differing only in the combination of the 10 mL inoculated water mixtures with appropriate volumes of the EnviroSan with or without catalase to achieve 30 ppm POAA residual to each test tube in timed intervals and mixed. The methods of Example 5 were employed to make the EnviroSan with catalase stock solutions. In comparison, for the water samples that were not chemically treated, 9.9 mL of test water mixture was dispensed into 2 individual test tubes. 0.10 mL of an approximate 10^8 CFU/mL culture of P. aeruginosa was added in timed intervals and mixed thoroughly. Then 1 mL samples were neutralized in 9 mL of 0.5% sodium thiosulfate, followed by serial dilution and enumeration after 2.5 minutes, 5 minutes and 60 minute exposure times.
# Table 11C show the use of 30 ppm POAA with/without catalase treatment compared for micro performance at both 2.5 and 5.0 minutes exposure times. Upon addition of 10-30% reuse water a defined drop in antimicrobial performance was observed over both 2.5 and 5 minutes as peracid was rapidly consumed if not pretreated with catalase. A residual of 30 ppm POAA at 5 minutes was needed to achieve the desired antimicrobial performance.
# fracking water mixtures [5] = test: Micro efficacy: POAA dosed for 30 ppm residual versus POAA pretreated with catalase (Example 8); assay type: cell-based; conditions: no holding tank treatment
# Method: A micro efficacy comparison of POAA added at levels to target 30 ppm POAA residuals at 5 minutes versus POAA pretreated with catalase was conducted as set forth in Table 12.
# [6] = catalase 0.5 ppm, time 0 hr, series starting 14.6 ppm POAA, EnviroSan in water, ambient
# [7] = catalase 0.5 ppm, time 0 hr, series starting 31.1 ppm POAA
# [8] = catalase 0.5 ppm, time 1 hr, series starting 14.6 ppm POAA
# [9] = catalase 0.5 ppm, time 1 hr, series starting 31.1 ppm POAA
# [10] = catalase 0.5 ppm, time 2 hr, series starting 14.6 ppm POAA
# [11] = catalase 0.5 ppm, time 2 hr, series starting 31.1 ppm POAA
# [12] = catalase 0.5 ppm, time 3.6 hr, series starting 14.6 ppm POAA
# [13] = catalase 0.5 ppm, time 3.6 hr, series starting 31.1 ppm POAA
# [14] = catalase 1.0 ppm, time 0 hr, series starting 14.8 ppm POAA
# [15] = catalase 1.0 ppm, time 0 hr, series starting 30.1 ppm POAA
# [16] = catalase 1.0 ppm, time 1 hr, series starting 14.8 ppm POAA
# [17] = catalase 1.0 ppm, time 1 hr, series starting 30.1 ppm POAA
# [18] = catalase 1.0 ppm, time 2 hr, series starting 14.8 ppm POAA
# [19] = catalase 1.0 ppm, time 2 hr, series starting 30.1 ppm POAA
# [20] = catalase 1.0 ppm, time 3.6 hr, series starting 14.8 ppm POAA
# [21] = catalase 1.0 ppm, time 3.6 hr, series starting 30.1 ppm POAA
compound,measurement,setting,value
catalase,catalase concentration sufficient for treating the water source,[1]; ambient conditions,~1 ppm
same,H2O2 (ppm),[1]; [6],12.0 ppm
same,POAA (ppm),[1]; [6],14.6 ppm
same,H2O2 (ppm),[1]; [7],22.8 ppm
same,POAA (ppm),[1]; [7],31.1 ppm
same,H2O2 (ppm),[1]; [8],7.5 ppm
same,POAA (ppm),[1]; [8],15.0 ppm
same,H2O2 (ppm),[1]; [9],12.2 ppm
same,POAA (ppm),[1]; [9],32.0 ppm
same,H2O2 (ppm),[1]; [10],6.5 ppm
same,POAA (ppm),[1]; [10],14.3 ppm
same,H2O2 (ppm),[1]; [11],7.8 ppm
same,POAA (ppm),[1]; [11],29.2 ppm
same,H2O2 (ppm),[1]; [12],1.8 ppm
same,POAA (ppm),[1]; [12],14.2 ppm
same,H2O2 (ppm),[1]; [13],3.4 ppm
same,POAA (ppm),[1]; [13],30.6 ppm
same,H2O2 (ppm),[1]; [14],12.6 ppm
same,POAA (ppm),[1]; [14],14.8 ppm
same,H2O2 (ppm),[1]; [15],23.3 ppm
same,POAA (ppm),[1]; [15],30.1 ppm
same,H2O2 (ppm),[1]; [16],3.7 ppm
same,POAA (ppm),[1]; [16],14.6 ppm
same,H2O2 (ppm),[1]; [17],7.6 ppm
same,POAA (ppm),[1]; [17],31.0 ppm
same,H2O2 (ppm),[1]; [18],1.1 ppm
same,POAA (ppm),[1]; [18],14.2 ppm
same,H2O2 (ppm),[1]; [19],2.3 ppm
same,POAA (ppm),[1]; [19],29.6 ppm
same,H2O2 (ppm),[1]; [20],0.4 ppm
same,POAA (ppm),[1]; [20],15.9 ppm
same,H2O2 (ppm),[1]; [21],0.0 ppm
same,POAA (ppm),[1]; [21],29.3 ppm
same,selectivity of catalase for H2O2 over POAA,[1]; tested ambient conditions,selectively decomposes the H2O2 without having any negative impact on POAA stability
same,lowest catalase concentration with which pond water with POAA and H2O2 could be treated,"[1]; within 4 hours, ambient conditions",0.5 ppm
"CC(=O)OO [POAA, peracetic acid]",Avg. Log10 Reduction,"fracking water mixtures [2]; 75 ppm PAA holding tank pretreatment, 10% reuse H2O, 29 ppm POAA, no catalase, 2.5 minutes",6.45 Log10
same,Avg. Log10 Reduction,"fracking water mixtures [2]; 75 ppm PAA holding tank pretreatment, 10% reuse H2O, 29 ppm POAA, no catalase, 5 minutes",6.71 Log10
same,Avg. Log10 Reduction,"fracking water mixtures [2]; 75 ppm PAA holding tank pretreatment, 20% reuse H2O, 47 ppm PAA, no catalase, 2.5 minutes",6.42 Log10
same,Avg. Log10 Reduction,"fracking water mixtures [2]; 75 ppm PAA holding tank pretreatment, 20% reuse H2O, 47 ppm PAA, no catalase, 5 minutes",6.55 Log10
same,Avg. Log10 Reduction,"fracking water mixtures [2]; 75 ppm PAA holding tank pretreatment, 30% reuse H2O, 86 ppm POAA, no catalase, 2.5 minutes",6.47 Log10
same,Avg. Log10 Reduction,"fracking water mixtures [2]; 75 ppm PAA holding tank pretreatment, 30% reuse H2O, 86 ppm POAA, no catalase, 5 minutes",6.41 Log10
same,Avg. Log10 Reduction,"fracking water mixtures [2]; no holding tank pretreatment, 0% reuse H2O, 22 ppm POAA, 2.5 minutes",5.53 Log10
same,Avg. Log10 Reduction,"fracking water mixtures [2]; no holding tank pretreatment, 0% reuse H2O, 22 ppm POAA, 5 minutes",5.75 Log10
same,Avg. Log10 Reduction,"fracking water mixtures [2]; no holding tank pretreatment, 10% reuse H2O, 36 ppm POAA, 2.5 minutes",4.32 Log10
same,Avg. Log10 Reduction,"fracking water mixtures [2]; no holding tank pretreatment, 10% reuse H2O, 36 ppm POAA, 5 minutes",4.72 Log10
same,Avg. Log10 Reduction,"fracking water mixtures [2]; no holding tank pretreatment, 20% reuse H2O, 86 ppm POAA, 2.5 minutes",4.57 Log10
same,Avg. Log10 Reduction,"fracking water mixtures [2]; no holding tank pretreatment, 20% reuse H2O, 86 ppm POAA, 5 minutes",4.64 Log10
same,Avg. Log10 Reduction,"fracking water mixtures [2]; no holding tank pretreatment, 30% reuse H2O, 138 ppm POAA, 2.5 minutes",4.12 Log10
same,Avg. Log10 Reduction,"fracking water mixtures [2]; no holding tank pretreatment, 30% reuse H2O, 138 ppm POAA, 5 minutes",5.00 Log10
same,Actual Titrated Concentration (ppm POAA),"[3]; 70% Fresh/30% Produced, desired 30 ppm POAA, 1 minutes",7 ppm
same,Actual Titrated Concentration (ppm POAA),"[3]; 70% Fresh/30% Produced, desired 30 ppm POAA, 5 minutes",0 ppm
same,Actual Titrated Concentration (ppm POAA),"[3]; 70% Fresh/30% Produced, desired 40 ppm POAA, 1 minutes",12 ppm
same,Actual Titrated Concentration (ppm POAA),"[3]; 70% Fresh/30% Produced, desired 40 ppm POAA, 5 minutes",0 ppm
same,Actual Titrated Concentration (ppm POAA),"[3]; 80% Fresh/20% Produced, desired 30 ppm POAA, 1 minutes",13 ppm
same,Actual Titrated Concentration (ppm POAA),"[3]; 80% Fresh/20% Produced, desired 30 ppm POAA, 5 minutes",0 ppm
same,Actual Titrated Concentration (ppm POAA),"[3]; 80% Fresh/20% Produced, desired 40 ppm POAA, 1 minutes",21 ppm
same,Actual Titrated Concentration (ppm POAA),"[3]; 80% Fresh/20% Produced, desired 40 ppm POAA, 5 minutes",2 ppm
same,Actual Titrated Concentration (ppm POAA),"[3]; 90% Fresh/10% Produced, desired 30 ppm POAA, 1 minutes",21 ppm
same,Actual Titrated Concentration (ppm POAA),"[3]; 90% Fresh/10% Produced, desired 30 ppm POAA, 5 minutes",8 ppm
same,Actual Titrated Concentration (ppm POAA),"[3]; 90% Fresh/10% Produced, desired 40 ppm POAA, 1 minutes",30 ppm
same,Actual Titrated Concentration (ppm POAA),"[3]; 90% Fresh/10% Produced, desired 40 ppm POAA, 5 minutes",16 ppm
same,Avg. Log10 Reduction,"[4]; 0% reuse H2O, 2.5 minutes",4.64 Log10
same,Avg. Log10 Reduction,"[4]; 0% reuse H2O, 5 minutes",6.32 Log10
same,Avg. Log10 Reduction,"[4]; 10% reuse H2O, 2.5 minutes",3.09 Log10
same,Avg. Log10 Reduction,"[4]; 10% reuse H2O, 5 minutes",3.91 Log10
same,Avg. Log10 Reduction,"[4]; 20% reuse H2O, 2.5 minutes",2.19 Log10
same,Avg. Log10 Reduction,"[4]; 20% reuse H2O, 5 minutes",2.38 Log10
same,Avg. Log10 Reduction,"[4]; 30% reuse H2O, 2.5 minutes",1.88 Log10
same,Avg. Log10 Reduction,"[4]; 30% reuse H2O, 5 minutes",1.93 Log10
same,Avg. Log10 Reduction,"fracking water mixtures [5]; 10% reuse H2O, 46 ppm PAA, 2.5 minutes",4.32 Log10
same,Avg. Log10 Reduction,"fracking water mixtures [5]; 10% reuse H2O, 46 ppm PAA, 5 minutes",4.72 Log10
same,Avg. Log10 Reduction,"fracking water mixtures [5]; 20% reuse H2O, 86 ppm PAA, 2.5 minutes",4.57 Log10
same,Avg. Log10 Reduction,"fracking water mixtures [5]; 20% reuse H2O, 86 ppm PAA, 5 minutes",4.64 Log10
same,Avg. Log10 Reduction,"fracking water mixtures [5]; 30% reuse H2O, 138 ppm PAA, 2.5 minutes",4.12 Log10
same,Avg. Log10 Reduction,"fracking water mixtures [5]; 30% reuse H2O, 138 ppm PAA, 5 minutes",5.00 Log10
